Test system: MV-4-11 cells
Experiment: Gene expression microarray analysis (Affymetrix PrimeView) and GSEA
Assay type: cell-based, human
Set-up: RFU PODN (11730768_x_at) / Fold change /veh PODN (11730768_x_at) / RFU LINC00158 (11744669_a_at) / Fold change /veh LINC00158 (11744669_a_at) / RFU DUSP10 (11751237_a_at) / Fold change /veh DUSP10 (11751237_a_at) / RFU ID3 (11757404_x_at) / Fold change /veh ID3 (11757404_x_at) / RFU PLEKHG5 (11737974_s_at) / Fold change /veh PLEKHG5 (11737974_s_at) / RFU LRRC4B (11730491_at) / Fold change /veh LRRC4B (11730491_at) / RFU GIMAP4 (11747438_a_at) / Fold change /veh GIMAP4 (11747438_a_at) / RFU KRT8 (11758183_x_at) / Fold change /veh KRT8 (11758183_x_at) / RFU CNN1 (11734310_a_at) / Fold change /veh CNN1 (11734310_a_at) / RFU VPS37D (11726825_at) / Fold change /veh VPS37D (11726825_at) / RFU C10orf10 (11716522_x_at) / Fold change /veh C10orf10 (11716522_x_at) / RFU KIR2DL2 /// KIR2DL4 /// KIR2DL5A /// KIR2DL5B /// KIR2DS1 /// KIR2DS2 /// KIR2DS3 /// KIR2DS4 /// KIR3DL3 /// KIR3DL3 /// KIR3DS1 (11738374_at) / Fold change /veh KIR2DL2 /// KIR2DL4 /// KIR2DL5A /// KIR2DL5B /// KIR2DS1 /// KIR2DS2 /// KIR2DS3 /// KIR2DS4 /// KIR3DL3 /// KIR3DL3 /// KIR3DS1 (11738374_at) / RFU C1QL1 (11718748_at) / Fold change /veh C1QL1 (11718748_at) / RFU TMPRSS4 (11747572_a_at) / Fold change /veh TMPRSS4 (11747572_a_at) / RFU HAMP (11756126_x_at) / Fold change /veh HAMP (11756126_x_at) / RFU RNFT2 (11725882_a_at) / Fold change /veh RNFT2 (11725882_a_at) / RFU NR4A2 (11747474_a_at) / Fold change /veh NR4A2 (11747474_a_at) / RFU ABCC12 (11746883_a_at) / Fold change /veh ABCC12 (11746883_a_at) / RFU TMEM136 (11760407_x_at) / Fold change /veh TMEM136 (11760407_x_at) / RFU CLDN22 /// WWC2 (11732394_at) / Fold change /veh CLDN22 /// WWC2 (11732394_at) / RFU HLA-DPB1 (11760878_x_at) / Fold change /veh HLA-DPB1 (11760878_x_at) / RFU SPINT1 (11716480_a_at) / Fold change /veh SPINT1 (11716480_a_at) / RFU GAP43 (11754022_s_at) / Fold change /veh GAP43 (11754022_s_at) / RFU A4GNT (11735810_at) / Fold change /veh A4GNT (11735810_at) / RFU PRB3 (11715151_x_at) / Fold change /veh PRB3 (11715151_x_at) / RFU TUBB4B (11761932_at) / Fold change /veh TUBB4B (11761932_at) / RFU CAPN14 (11732068_a_at) / Fold change /veh CAPN14 (11732068_a_at) / RFU TMCC2 (11721928_a_at) / Fold change /veh TMCC2 (11721928_a_at) / RFU IRGQ (11745062_a_at) / Fold change /veh IRGQ (11745062_a_at) / RFU FAM174B (11720279_a_at) / Fold change /veh FAM174B (11720279_a_at) / RFU TMPRSS4 (11748680_a_at) / Fold change /veh TMPRSS4 (11748680_a_at) / RFU FAM212B (11763350_a_at) / Fold change /veh FAM212B (11763350_a_at) / RFU PLEKHG5 (11743358_a_at) / Fold change /veh PLEKHG5 (11743358_a_at) / RFU ZSCAN30 (11745921_a_at) / Fold change /veh ZSCAN30 (11745921_a_at) / RFU CMKLR1 (11741424_a_at) / Fold change /veh CMKLR1 (11741424_a_at) / RFU LOC101060620 /// MAPK8IP1 (11723275_at) / Fold change /veh LOC101060620 /// MAPK8IP1 (11723275_at) / RFU SPTSSB (11747773_x_at) / Fold change /veh SPTSSB (11747773_x_at) / RFU PRSS12 (11739890_at) / Fold change /veh PRSS12 (11739890_at) / RFU BIN1 (11741810_x_at) / Fold change /veh BIN1 (11741810_x_at) / RFU WNT11 (11732464_a_at) / Fold change /veh WNT11 (11732464_a_at) / RFU C10orf10 (11716521_a_at) / Fold change /veh C10orf10 (11716521_a_at) / RFU C5orf56 (11738089_at) / Fold change /veh C5orf56 (11738089_at) / RFU CYB561 (11721691_x_at) / Fold change /veh CYB561 (11721691_x_at) / RFU ANKRD19P (11752326_a_at) / Fold change /veh ANKRD19P (11752326_a_at) / RFU OR2T12 /// OR2T33 /// OR2T8 (11738714_s_at) / Fold change /veh OR2T12 /// OR2T33 /// OR2T8 (11738714_s_at) / RFU VCAN (11748164_a_at) / Fold change /veh VCAN (11748164_a_at) / RFU JSRP1 (11732532_at) / Fold change /veh JSRP1 (11732532_at) / RFU KRTAP10-11 (11738290_x_at) / Fold change /veh KRTAP10-11 (11738290_x_at) / RFU MYO3A (11730013_a_at) / Fold change /veh MYO3A (11730013_a_at) / RFU EBF3 (11725865_a_at) / Fold change /veh EBF3 (11725865_a_at) / RFU CAMK2N1 (11719241_x_at) / Fold change /veh CAMK2N1 (11719241_x_at) / RFU C5orf56 (11738088_a_at) / Fold change /veh C5orf56 (11738088_a_at) / RFU OLFML3 (11715873_a_at) / Fold change /veh OLFML3 (11715873_a_at) / RFU LOC100653217 /// NTM (11731650_a_at) / Fold change /veh LOC100653217 /// NTM (11731650_a_at) / RFU MAPK11 (11762145_a_at) / Fold change /veh MAPK11 (11762145_a_at) / RFU FIZ1 (11724087_x_at) / Fold change /veh FIZ1 (11724087_x_at) / RFU OASL (11726364_x_at) / Fold change /veh OASL (11726364_x_at) / RFU SOX15 (11748057_x_at) / Fold change /veh SOX15 (11748057_x_at) / RFU CD79A (11719716_a_at) / Fold change /veh CD79A (11719716_a_at) / RFU HIST1H1D (11736915_at) / Fold change /veh HIST1H1D (11736915_at) / RFU CASKIN2 (11723855_a_at) / Fold change /veh CASKIN2 (11723855_a_at) / RFU LOC730098 (11760151_x_at) / Fold change /veh LOC730098 (11760151_x_at) / RFU OR4N2 (11742367_at) / Fold change /veh OR4N2 (11742367_at) / RFU PRRT2 (11749266_a_at) / Fold change /veh PRRT2 (11749266_a_at) / RFU SNX32 (11753110_a_at) / Fold change /veh SNX32 (11753110_a_at) / RFU CDHR5 (11726645_a_at) / Fold change /veh CDHR5 (11726645_a_at) / RFU RCAN1 (11760418_a_at) / Fold change /veh RCAN1 (11760418_a_at) / RFU FAM167A (11723789_a_at) / Fold change /veh FAM167A (11723789_a_at) / RFU FAM26E (11764081_at) / Fold change /veh FAM26E (11764081_at) / RFU ISYNA1 (11749810_s_at) / Fold change /veh ISYNA1 (11749810_s_at) / RFU ACY1 (11761880_at) / Fold change /veh ACY1 (11761880_at) / RFU 11764098_at / Fold change /veh 11764098_at / RFU SAMD14 (11745864_x_at) / Fold change /veh SAMD14 (11745864_x_at) / RFU NPB (11741838_a_at) / Fold change /veh NPB (11741838_a_at) / RFU TMPRSS6 (11731388_a_at) / Fold change /veh TMPRSS6 (11731388_a_at) / RFU KRTAP10-2 (11738614_at) / Fold change /veh KRTAP10-2 (11738614_at) / RFU ARHGAP8 /// PRR5-ARHGAP8 (11727945_x_at) / Fold change /veh ARHGAP8 /// PRR5-ARHGAP8 (11727945_x_at) / RFU KRTAP5-7 /// NADSYN1 (11734609_at) / Fold change /veh KRTAP5-7 /// NADSYN1 (11734609_at) / RFU RASL12 (11751679_a_at) / Fold change /veh RASL12 (11751679_a_at) / RFU CDKN2B (11736163_a_at) / Fold change /veh CDKN2B (11736163_a_at) / RFU PRF1 (11729649_at) / Fold change /veh PRF1 (11729649_at) / RFU, ZNF638 /// ZNF638-IT1 / Fold change vs veh, ZNF638 /// ZNF638-IT1 / RFU, PANK3 / Fold change vs veh, PANK3 / RFU, SH3YL1 / Fold change vs veh, SH3YL1 / RFU, ZEB2 / Fold change vs veh, ZEB2 / RFU, NRIP1 / Fold change vs veh, NRIP1 / RFU, PTTG1IP / Fold change vs veh, PTTG1IP / RFU, CAPN2 / Fold change vs veh, CAPN2 / RFU, MED14 / Fold change vs veh, MED14 / RFU, SNORA58 / Fold change vs veh, SNORA58 / RFU, C1orf63 / Fold change vs veh, C1orf63 / RFU, LRRFIP1 / Fold change vs veh, LRRFIP1 / RFU, NDUFAF7 / Fold change vs veh, NDUFAF7 / RFU, SLC12A2 / Fold change vs veh, SLC12A2 / RFU, IBTK / Fold change vs veh, IBTK / RFU, ESF1 / Fold change vs veh, ESF1 / Fold change vs veh, TMEM50B / RFU, TAOK1 / Fold change vs veh, TAOK1 / RFU, ACBD3 / Fold change vs veh, ACBD3 / RFU, TMA16 / Fold change vs veh, TMA16 / RFU, RWDD3 / Fold change vs veh, RWDD3 / RFU, BCAT1 / Fold change vs veh, BCAT1 / RFU, EDEM3 / Fold change vs veh, EDEM3 / RFU, TMEM33 / Fold change vs veh, TMEM33 / RFU, WDR75 / Fold change vs veh, WDR75 / RFU, AHCTF1 / Fold change vs veh, AHCTF1 / RFU, TFRC / Fold change vs veh, TFRC / RFU, ZDHHC17 / Fold change vs veh, ZDHHC17 / RFU, NOM1 / Fold change vs veh, NOM1 / RFU, ARL8B / Fold change vs veh, ARL8B / RFU, ZBTB11 / Fold change vs veh, ZBTB11 / RFU, TAMM41 / Fold change vs veh, TAMM41 / RFU, KIAA1704 /// LOC100996395 / Fold change vs veh, KIAA1704 /// LOC100996395 / RFU, ING1 / Fold change vs veh, ING1 / RFU, TRMT61B / Fold change vs veh, TRMT61B / RFU, FUBP3 / Fold change vs veh, FUBP3 / RFU, TP53 / Fold change vs veh, TP53 / RFU, TNKS2 / Fold change vs veh, TNKS2 / RFU, ZFP14 / Fold change vs veh, ZFP14 / RFU, ACTR2 / Fold change vs veh, ACTR2 / RFU, PPP3R1 / Fold change vs veh, PPP3R1 / RFU, PIK3R1 / Fold change vs veh, PIK3R1 / RFU, HNRNPA1 / Fold change vs veh, HNRNPA1 / RFU, RNF170 / Fold change vs veh, RNF170 / RFU, ZNF28 / Fold change vs veh, ZNF28 / RFU, RNGTT / Fold change vs veh, RNGTT / RFU, OGT / Fold change vs veh, OGT / RFU, BRD1 / Fold change vs veh, BRD1 / RFU, MARS / Fold change vs veh, MARS / RFU, ZNF655 / Fold change vs veh, ZNF655 / RFU, FAHD1 / Fold change vs veh, FAHD1 / RFU, BDP1 / Fold change vs veh, BDP1 / RFU, LRRCC1 / Fold change vs veh, LRRCC1 / RFU, ARID1A / Fold change vs veh, ARID1A / RFU, ZNF146 / Fold change vs veh, ZNF146 / RFU, ZNF330 / Fold change vs veh, ZNF330 / RFU, GPN3 / Fold change vs veh, GPN3 / RFU, C9orf123 / Fold change vs veh, C9orf123 / RFU, N4BP2L2 / Fold change vs veh, N4BP2L2 / RFU, ARFIP1 / Fold change vs veh, ARFIP1 / RFU, FAM179B / Fold change vs veh, FAM179B / RFU, BCL10 / Fold change vs veh, BCL10 / RFU, UHRF1BP1L / Fold change vs veh, UHRF1BP1L / RFU, BET1 / Fold change vs veh, BET1 / RFU, CNOT2 / Fold change vs veh, CNOT2 / RFU, ZNF268 / Fold change vs veh, ZNF268 / Fold change vs veh, ZNF507 / RFU, DGCR2 / Fold change vs veh, DGCR2 / RFU, WDSUB1 / Fold change vs veh, WDSUB1 / Fold change vs veh, HSP90B1 /// MIR3652 / RFU, ADSS / Fold change vs veh, ADSS / RFU, GK / Fold change vs veh, GK / RFU, ZNF148 / Fold change vs veh, ZNF148 / RFU, TAF9 / Fold change vs veh, TAF9 / RFU, SLC1A5 / Fold change vs veh, SLC1A5 / RFU, SLMO2 / Fold change vs veh, SLMO2 / RFU, ABCC4 / Fold change vs veh, ABCC4 / RFU, LOC101060439 /// RAP1B / Fold change vs veh, LOC101060439 /// RAP1B / RFU, RFX7 / Fold change vs veh, RFX7 / RFU, GTPBP10 / Fold change vs veh, GTPBP10 / RFU, CNEP1R1 / Fold change vs veh, CNEP1R1 / RFU, BIVM-ERCC5 /// ERCC5 / Fold change vs veh, BIVM-ERCC5 /// ERCC5 / RFU, ILF3 / Fold change vs veh, ILF3 / RFU 11762660_at / Fold change /veh 11762660_at / RFU VCAN (11757783_s_at) / Fold change /veh VCAN (11757783_s_at) / RFU DDX43 (11728927_at) / Fold change /veh DDX43 (11728927_at) / RFU KRT8 (11758188_x_at) / Fold change /veh KRT8 (11758188_x_at) / RFU NKD1 (11759106_at) / Fold change /veh NKD1 (11759106_at) / RFU SRD5A1 (11742802_a_at) / Fold change /veh SRD5A1 (11742802_a_at) / RFU TPSAB1 /// TPSB2 (11721975_s_at) / Fold change /veh TPSAB1 /// TPSB2 (11721975_s_at) / RFU GSTM3 (11746129_a_at) / Fold change /veh GSTM3 (11746129_a_at) / RFU IL23R (11737362_x_at) / Fold change /veh IL23R (11737362_x_at) / RFU TMEM51 (11727254_a_at) / Fold change /veh TMEM51 (11727254_a_at) / RFU PIWIL2 (11732686_x_at) / Fold change /veh PIWIL2 (11732686_x_at) / RFU ORM1 (11744905_x_at) / Fold change /veh ORM1 (11744905_x_at) / RFU CCDC152 (11743942_at) / Fold change /veh CCDC152 (11743942_at) / RFU ECM1 (11717891_a_at) / Fold change /veh ECM1 (11717891_a_at) / RFU IL23R (11748794_a_at) / Fold change /veh IL23R (11748794_a_at) / RFU TNFAIP8L3 (11732012_x_at) / Fold change /veh TNFAIP8L3 (11732012_x_at) / RFU MBOAT4 (11741988_at) / Fold change /veh MBOAT4 (11741988_at) / RFU 11764193_at / Fold change /veh 11764193_at / RFU TMEM53 (11763286_at) / Fold change /veh TMEM53 (11763286_at) / RFU MAGEB2 (11727129_at) / Fold change /veh MAGEB2 (11727129_at) / RFU TMEM200A (11744735_a_at) / Fold change /veh TMEM200A (11744735_a_at) / RFU CCDC152 (11751479_a_at) / Fold change /veh CCDC152 (11751479_a_at) / RFU FAM211A (11726209_a_at) / Fold change /veh FAM211A (11726209_a_at) / RFU RGS16 (11746705_a_at) / Fold change /veh RGS16 (11746705_a_at) / RFU VCAN (11755009_s_at) / Fold change /veh VCAN (11755009_s_at) / RFU RHOB (11743442_s_at) / Fold change /veh RHOB (11743442_s_at) / RFU RGS16 (11720943_a_at) / Fold change /veh RGS16 (11720943_a_at) / RFU RGS16 (11720944_at) / Fold change /veh RGS16 (11720944_at) / RFU, VPS4B / Fold change vs veh, VPS4B / RFU, CREB1 / Fold change vs veh, CREB1 / RFU, DNAJC13 / Fold change vs veh, DNAJC13 / RFU, GNAQ / Fold change vs veh, GNAQ / RFU, CDK5R1 / Fold change vs veh, CDK5R1 / RFU, ZRANB3 / Fold change vs veh, ZRANB3 / RFU, CUL4A / Fold change vs veh, CUL4A / RFU, CCNY / Fold change vs veh, CCNY / RFU, UFL1 / Fold change vs veh, UFL1 / RFU, COG3 / Fold change vs veh, COG3 / RFU, DIAPH2 / Fold change vs veh, DIAPH2 / RFU, SKA2 / Fold change vs veh, SKA2 / RFU, AFF3 / Fold change vs veh, AFF3 / RFU, LMF1 / Fold change vs veh, LMF1 / RFU, IPO11 / Fold change vs veh, IPO11 / RFU, DFFB / Fold change vs veh, DFFB / RFU, FOXP1 / Fold change vs veh, FOXP1 / RFU, CARD8 / Fold change vs veh, CARD8 / RFU, STRN3 / Fold change vs veh, STRN3 / RFU, ADK / Fold change vs veh, ADK / RFU, RASSF2 / Fold change vs veh, RASSF2 / RFU, WIPF1 / Fold change vs veh, WIPF1 / RFU, LARP1B / Fold change vs veh, LARP1B / RFU, RASA1 / Fold change vs veh, RASA1 / RFU, RB1 / Fold change vs veh, RB1 / RFU, PPFIA1 / Fold change vs veh, PPFIA1 / RFU, MAT2A / Fold change vs veh, MAT2A / RFU, CCT5 / Fold change vs veh, CCT5 / RFU, WDR92 / Fold change vs veh, WDR92 / RFU, CUX1 / Fold change vs veh, CUX1 / RFU, TTC7A / Fold change vs veh, TTC7A / RFU, TMEM135 / Fold change vs veh, TMEM135 / RFU, DEPTOR / Fold change vs veh, DEPTOR / RFU, CPM / Fold change vs veh, CPM / RFU, DNAJB6 / Fold change vs veh, DNAJB6 / RFU, CACNA2D3 / Fold change vs veh, CACNA2D3 / RFU, DTX4 / Fold change vs veh, DTX4 / RFU, TFCP2 / Fold change vs veh, TFCP2 / RFU, GMCL1 /// GMCL1P1 / Fold change vs veh, GMCL1 /// GMCL1P1 / RFU, AEBP2 / Fold change vs veh, AEBP2 / RFU, SNHG1 /// SNORD22 /// SNORD25 /// SNORD26 /// SNORD27 /// SNORD28 /// SNORD29 /// SNORD31 / Fold change vs veh, SNHG1 /// SNORD22 /// SNORD25 /// SNORD26 /// SNORD27 /// SNORD28 /// SNORD29 /// SNORD31 / Fold change (Aza/veh), C12orf56 (ProbeSet 11735607_a_at) / Fold change (ACY-1035/veh), C12orf56 (ProbeSet 11735607_a_at) / Fold change (Aza/veh), FGFR1OP (ProbeSet 11751329_s_at) / Fold change (ACY-1035/veh), FGFR1OP (ProbeSet 11751329_s_at) / Fold change (Aza/veh), VPS36 (ProbeSet 11739960_a_at) / Fold change (ACY-1035/veh), VPS36 (ProbeSet 11739960_a_at) / RFU SYPL1 (11715823_x_at) / Fold change /veh SYPL1 (11715823_x_at) / RFU IGFBP7 (11715501_s_at) / Fold change /veh IGFBP7 (11715501_s_at) / RFU REEP3 (11722064_at) / Fold change /veh REEP3 (11722064_at) / RFU IGLL1 (11728026_x_at) / Fold change /veh IGLL1 (11728026_x_at): dose or concentration left out as unconfirmed
Conditions: ProbeSet 11720566_at; LIST D

## Nc1ncn([C@@H]2O[C@H](CO)[C@@H](O)[C@H]2O)c(=O)n1 [azacitidine]
  Fold change vs veh, BCAT1: 0.67

Source: PMC5218480 (PLoS ONE, 2017)
